These results are taken from publication PMC12186255, “Discovery and Characterization of Small Molecule Inhibitors Targeting Exonuclease 1 for Homologous Recombination-Deficient Cancer Therapy” (ACS Chemical Biology, 2025).

Test [1] deals with T1, EXO1 (Homo sapiens, UniProt Q9UQ84).
T1 construct: made in house
T1 sequence (Q9UQ84 1-846): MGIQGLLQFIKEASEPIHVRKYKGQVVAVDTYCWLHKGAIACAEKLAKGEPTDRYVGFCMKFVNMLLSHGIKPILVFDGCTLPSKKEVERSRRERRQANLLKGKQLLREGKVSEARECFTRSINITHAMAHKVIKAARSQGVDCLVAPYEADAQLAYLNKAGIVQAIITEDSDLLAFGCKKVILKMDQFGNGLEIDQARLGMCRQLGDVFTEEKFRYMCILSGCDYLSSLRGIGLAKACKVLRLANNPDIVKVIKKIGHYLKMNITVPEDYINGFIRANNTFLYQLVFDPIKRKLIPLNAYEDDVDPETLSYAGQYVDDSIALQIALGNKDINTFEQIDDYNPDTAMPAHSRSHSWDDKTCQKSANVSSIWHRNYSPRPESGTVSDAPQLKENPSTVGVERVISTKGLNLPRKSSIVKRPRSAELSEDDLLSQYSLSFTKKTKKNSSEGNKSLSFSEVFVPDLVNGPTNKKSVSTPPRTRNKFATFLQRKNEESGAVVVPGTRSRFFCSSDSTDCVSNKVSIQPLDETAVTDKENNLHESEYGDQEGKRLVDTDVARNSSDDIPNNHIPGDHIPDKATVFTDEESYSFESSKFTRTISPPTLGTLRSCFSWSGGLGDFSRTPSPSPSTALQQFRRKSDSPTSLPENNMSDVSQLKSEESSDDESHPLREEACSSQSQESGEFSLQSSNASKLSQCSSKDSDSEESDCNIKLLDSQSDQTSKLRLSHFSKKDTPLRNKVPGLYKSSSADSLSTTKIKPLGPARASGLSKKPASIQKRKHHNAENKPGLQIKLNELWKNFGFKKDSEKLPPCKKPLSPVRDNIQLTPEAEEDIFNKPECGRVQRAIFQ
Nature of the test: Thermal shift assay. Type of test: binding. As to conditions: maximum shift in Tm of EXO1 vs DMSO, increasing inhibitor concentrations.
Description: To assess for changes in the thermal stability of EXO1 protein in response to treatment with candidate small molecule inhibitors or DMSO (vehicle control), the thermal shift assay (Applied Biosystems Protein Thermal Shift Dye Kit, Cat. #4461146) was utilized. The protein melt reaction mix consisted of freshly prepared 10× thermal shift dye, purified EXO1 enzyme (1 μg/uL), thermal shift buffer, DMSO or inhibitors, and sterilized Milli-Q water. A drug-free supermix was premade and dispensed in 96-well PCR plates followed by the addition of DMSO or inhibitors with increasing concentration. The reaction plate was heated from 10 to 98 °C at a rate of 0.5° per 10 s cycle, and the fluorescence intensity of individual wells was measured at 490/530 nm using a BioRad CFX96 Touch Real-Time PCR System. The fluorescence measurements of three technical replicates per treatment condition were then averaged to calculate melting temperature shift (ΔT m) as a readout for compound binding affinity.

In test [2] the target is T2, EXO1 D225A (Homo sapiens, UniProt Q9UQ84, D225A).
T2 construct: The N-terminal domain of human EXO1 (hEXO1) (residues 1–345) was cloned into the pET28b vector; made in house; host or cells: E. coli BL21(DE3) and Rosetta 2(DE3)
T2 sequence (Q9UQ84 1-345 D225A): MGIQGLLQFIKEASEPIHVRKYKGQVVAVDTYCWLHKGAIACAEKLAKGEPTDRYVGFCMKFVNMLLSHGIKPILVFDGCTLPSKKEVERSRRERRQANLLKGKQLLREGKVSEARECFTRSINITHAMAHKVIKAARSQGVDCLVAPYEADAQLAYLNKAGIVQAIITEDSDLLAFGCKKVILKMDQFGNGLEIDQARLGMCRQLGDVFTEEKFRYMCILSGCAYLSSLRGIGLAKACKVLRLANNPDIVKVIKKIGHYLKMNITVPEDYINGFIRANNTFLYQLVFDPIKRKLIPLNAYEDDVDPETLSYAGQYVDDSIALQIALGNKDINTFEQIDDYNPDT
Nature of the test: In vitro exonuclease activity of mutant with inhibitors. To be noted: EXO1 25 nM, DNA substrate 250 nM; C200 0-5 μM. Type of test: biochemical. The protocol: (§1) Simultaneously, we tested the effect of each point mutation on the in vitro exonuclease activity. Most mutations in site 1 result in some loss of enzymatic activity compared to WT EXO1 (Figure S13; WT:Figure S13a), particularly K85A and D225A (Figure S13b,f). […] However, at concentrations of 20 and 40 μM, the mutants (K85A and R92A) behaved more like WT (Figure b).
(§2) In both panels a and b, DMSO without inhibitors was used as a control, and its relative binding activity was set equal to 1.0. The EXO1 enzyme concentration was 25 nM, and the DNA substrate concentration was 250 nM. The values shown are the mean ± S.D. of three independent experiments.
(§3) The N-terminal domain of human EXO1 (hEXO1) (residues 1–345) was cloned into the pET28b vector. The following mutations were introduced via site-directed mutagenesis based on the findings of molecular docking analysis: K85A, E89A, R92A, I125A, D225A, K292A, and K294A (oligonucleotide primers listed in Table S1) following the established protocol.

The target of test [3] is T3, EXO1 E89A (Homo sapiens, UniProt Q9UQ84, E89A).
T3 construct: The N-terminal domain of human EXO1 (hEXO1) (residues 1–345) was cloned into the pET28b vector; made in house; host or cells: E. coli BL21(DE3) and Rosetta 2(DE3)
T3 sequence (Q9UQ84 1-345 E89A): as the sequence (Q9UQ84 1-345 D225A) above, with E89A, A225D counted along it
Described as above. As to conditions: EXO1 25 nM, DNA substrate 250 nM. Type of test: biochemical. The protocol: as §1, §2, §3

The target of test [4] is T4, EXO1 I125A (Homo sapiens, UniProt Q9UQ84, I125A).
T4 construct: The N-terminal domain of human EXO1 (hEXO1) (residues 1–345) was cloned into the pET28b vector; made in house; host or cells: E. coli BL21(DE3) and Rosetta 2(DE3)
T4 sequence (Q9UQ84 1-345 I125A): as the sequence (Q9UQ84 1-345 D225A) above, with I125A, A225D counted along it
The description is as above. The class given is biochemical. To be noted: EXO1 25 nM, DNA substrate 250 nM. How it is done: as §1, §2, §3

Test [5] concerns DU145 (B3). Nature of the test: Cell line drug profiling, CellTiter Glo. The class given is cell-based. To be noted: Homo sapiens, DU-145, Prostate, 72 h. In a few lines: (§4)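 CellTiter Glo luminescence after 72 h compound exposure served as the cytotoxicity endpoint, using a duplicate 3-fold dose series topping at 50 μM on cells seeded the night before.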
Background: ATP-based viability assays read luminescence as a measure of living cells.

The subject of test [6] is DU145. Description: Cell line drug profiling, CellTiter Glo. Type of test: cell-based. To be noted: Homo sapiens, DU-145; DU145, Prostate, 72 h. In a few lines: as §4
For test [7], the system named is H23. Nature of the test: Cell line drug profiling, CellTiter Glo. Type of test: cell-based. To be noted: Homo sapiens, NCI-H23; H23, Lung, 72 h. In a few lines: as §4
Test [8] deals with IGR-OV1. Description: Cell line drug profiling, CellTiter Glo. The class given is cell-based. As to conditions: Homo sapiens, IGROV-1; IGR-OV1, Ovarian, 72 h. In a few lines: as §4
The subject of test [9] is OVCAR-5. Description: Cell line drug profiling, CellTiter Glo. The class given is cell-based. As to conditions: Homo sapiens; OVCAR-5, Ovarian, 72 h. In a few lines: as §4
Test [10] relates to OVCAR-8. Description: Cell line drug profiling, CellTiter Glo. The class given is cell-based. As to conditions: Homo sapiens; OVCAR-8, Ovarian, 72 h. In a few lines: as §4
Test [11] relates to PC3. Nature of the test: Cell line drug profiling, CellTiter Glo. Type of test: cell-based. As to conditions: Homo sapiens, PC-3; PC3, Prostate, 72 h. In a few lines:
as §4

Test [12] concerns SKOV-3. Description: Cell line drug profiling, CellTiter Glo. To be noted: Homo sapiens, SK-OV-3; SKOV-3, Ovarian, 72 h. The class given is cell-based. In a few lines: as §4
Test [13] relates to T-47D. Nature of the test: Cell line drug profiling, CellTiter Glo. Type of test: cell-based. To be noted: Homo sapiens, T47D, Breast, 72 h. In a few lines:
as §4

Test [14] concerns UACC-257. Description: Cell line drug profiling, CellTiter Glo. Type of test: cell-based. As to conditions: Homo sapiens; UACC-257, Melanoma, 72 h. In a few lines: as §4
Test [15] has as its system SF-295. Nature of the test: Cell line drug profiling, CellTiter Glo. As to conditions: Homo sapiens, SF-295, 72 h. The class given is cell-based, human. The protocol:
We tested the cytotoxicity of representative compounds from the seven EXO1i scaffolds against a subset of the NCI-60 cell line panel along with three additional pancreatic cell lines (FG, AsPC1, and CaPan2). In general, cells were seeded in 384-well tissue culture-treated plates overnight and treated with various concentrations of each hit compound (a serial 3-fold dilution from 50 μM for all tested hits). Each concentration was performed in duplicate. Cell viability was then measured by CellTiter Glo (Promega) after 72 h of treatment.

Test [16] deals with MDA-MB-436 (BRCA1−) and MDA-MB-436 (BRCA1+) cells. Nature of the test: In vitro cell survival assay (cell counting). The class given is cell-based, human. To be noted: 1-50 μM F684, 5 days. The protocol: For this assay, 10,000 cells were seeded per well in a 24-well plate and incubated in a complete culture medium containing DMSO or the EXO1i of interest at 37 °C with 5% CO2. The medium was refreshed every 3 to 4 days by replacing it with a fresh medium containing DMSO or EXO1i. After 5 days, the cells were trypsinized, and the survival curve was generated by manual cell counting.

“Also recorded” adds a separate entry of the source.

As for `COC(=O)c1nc(-c2ccc(OC)cc2)nc(O)c1O` [C200], in test [1], the ΔT m was approximately 1 °C. Besides, in test [2], the “inhibitory activity against EXO1 D225A mutant vs WT” value is on record as “partially lost its inhibitory effect; also recorded: abolished”. The “inhibitory activity against EXO1 E89A mutant vs WT” value in test [3] was “did not have a significant”. Also, the “inhibitory activity against EXO1 I125A mutant vs WT” value in test [4] is reported as “did not have a significant”. Moreover, the IC50 (as a rule, the concentration needed to halve the response being measured) in [5] was more than 50 µM; in test [6], 49.4 µM; in test [7] it was more than 50 µM; in test [8], more than 50 µM; in test [9], more than 50 µM; in [10], more than 50 µM. For the same compound, the half-maximal inhibitory concentration (IC50) in test [11], in test [12], in test [13], in test [14] and in test [15] was more than 50 µM in each case.
Take `Cc1cccc(N2CCN(c3ccc(NS(=O)(=O)c4ccccc4)c(C(=O)O)c3)CC2)c1C` [F684]: in test [16], the “cell killing (survival), BRCA1– vs BRCA1+ cells” value is “more effective in killing BRCA1– cells compared to BRCA1+ cells”.
